From US20230310445A1, “LOX ENZYME INHIBITING METHODS AND COMPOSITIONS” (ANOVIA BIOSCIENCES, INC., priority 2020, published 2023)

Columns and labels:
[1] = target: T1, Recombinant human LOXL2 (lysyl oxidase like 2) (Homo sapiens, UniProt Q9Y4K0); experiment: LOXL2 inhibition assay (fluorometric, cadaverine/Amplex Red/HRP); assay type: biochemical; details: IC50 class; recombinant human LOXL2, cadaverine substrate; read-out: Activity Range LOXL2
T1 construct: purchased R&D systems
T1 sequence (Q9Y4K0 26-774): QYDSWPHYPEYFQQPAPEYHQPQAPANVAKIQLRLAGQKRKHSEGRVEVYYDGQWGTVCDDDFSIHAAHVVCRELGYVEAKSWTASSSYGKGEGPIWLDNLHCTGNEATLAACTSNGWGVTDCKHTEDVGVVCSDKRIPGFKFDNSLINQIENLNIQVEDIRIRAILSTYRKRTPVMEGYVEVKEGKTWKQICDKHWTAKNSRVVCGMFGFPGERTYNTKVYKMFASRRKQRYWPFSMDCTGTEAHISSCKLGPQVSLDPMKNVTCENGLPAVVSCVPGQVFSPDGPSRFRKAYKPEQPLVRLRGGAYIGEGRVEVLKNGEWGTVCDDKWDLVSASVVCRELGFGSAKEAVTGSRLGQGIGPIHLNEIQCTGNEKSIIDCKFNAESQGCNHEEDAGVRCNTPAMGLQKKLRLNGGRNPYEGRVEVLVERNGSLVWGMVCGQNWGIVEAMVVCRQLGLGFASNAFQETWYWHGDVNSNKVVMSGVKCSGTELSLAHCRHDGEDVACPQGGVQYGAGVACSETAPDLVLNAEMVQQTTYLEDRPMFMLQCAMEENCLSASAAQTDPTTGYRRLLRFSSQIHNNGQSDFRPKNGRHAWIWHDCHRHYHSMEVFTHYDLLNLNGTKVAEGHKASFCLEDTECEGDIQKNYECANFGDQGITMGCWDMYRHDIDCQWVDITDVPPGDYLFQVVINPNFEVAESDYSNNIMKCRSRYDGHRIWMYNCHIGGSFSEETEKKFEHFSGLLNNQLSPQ
Method in brief: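 Both enzymes assayed in 1.2 M urea, 50 mM sodium borate pH 8.0, 10 mM CaCl, with 30 min compound–enzyme preincubation at 37° C before cadaverine/Amplex Red/HRP addition. Fluorescence followed 60 min at 37° C; linear-slope rates, background-subtracted, as % of DMSO control, fitted by 4-parameter variable-slope curve (bottom fixed at 0).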

[2] = target: T2, Recombinant human LOXL3 (lysyl oxidase like 3) (Homo sapiens, UniProt P58215); experiment: LOXL3 inhibition assay (fluorometric, cadaverine/Amplex Red/HRP); assay type: biochemical; details: IC50 class; recombinant human LOXL3, cadaverine substrate; read-out: Activity Range LOXL3
T2 construct: purchased R&D systems
T2 sequence (P58215 26-753): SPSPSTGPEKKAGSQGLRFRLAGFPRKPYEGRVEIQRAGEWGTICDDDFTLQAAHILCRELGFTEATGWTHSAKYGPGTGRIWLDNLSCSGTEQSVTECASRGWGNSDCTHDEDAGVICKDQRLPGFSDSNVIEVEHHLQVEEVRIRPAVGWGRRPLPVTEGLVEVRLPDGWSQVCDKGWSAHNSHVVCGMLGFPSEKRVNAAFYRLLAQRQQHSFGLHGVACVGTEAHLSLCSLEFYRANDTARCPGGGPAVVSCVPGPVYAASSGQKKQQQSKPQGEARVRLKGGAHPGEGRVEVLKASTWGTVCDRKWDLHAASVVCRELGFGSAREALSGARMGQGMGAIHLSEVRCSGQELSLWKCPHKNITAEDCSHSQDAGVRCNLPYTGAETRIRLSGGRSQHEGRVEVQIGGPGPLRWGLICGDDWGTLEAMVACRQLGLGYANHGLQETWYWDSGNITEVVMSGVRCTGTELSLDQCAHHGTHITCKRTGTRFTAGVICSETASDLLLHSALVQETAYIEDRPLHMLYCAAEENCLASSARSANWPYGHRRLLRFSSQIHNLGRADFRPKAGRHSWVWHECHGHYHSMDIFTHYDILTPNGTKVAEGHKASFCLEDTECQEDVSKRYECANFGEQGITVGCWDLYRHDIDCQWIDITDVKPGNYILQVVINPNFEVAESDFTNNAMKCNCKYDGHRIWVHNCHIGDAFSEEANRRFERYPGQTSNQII
Description: The ability of compounds to inhibit one or more of the lysyl oxidases LOXL2 and/or LOXL3 was determined using a fluorometric assay. This assay measures the activity of lysyl oxidases by coupling the reaction with horseradish peroxidase-catalyzed […]. The activity assay protocol uses cadaverine as substrate that releases hydrogen peroxide upon transformation by the specific LOX family enzyme present in the sample. Hydrogen peroxide is in turn detected using a red fluorescence substrate for HRP-coupled reactions (Amplex Red Enzyme Assays, Thermo Scientific Fisher). This leads to increase in fluorescence that can be easily detected at Ex/Em=540/590 nm in a fluorescence microplate reader.
Enzymes: Recombinant human LOXL2 (lysyl oxidase like 2) and recombinant human LOXL3 (lysyl oxidase like 3) were purchased from R&D systems and assays were performed in 1.2 M urea, 50 mM sodium borate buffer pH 8.0, and 10 mM CaCl.
Reaction: Final concentration in the LOXL2 and LOXL3 assays were as following and performed in a total volume of […]:
Experimental procedure: 5 μl of freshly prepared reaction buffer were delivered to reaction wells. Compounds were resuspended in 100% DMSO at 10 mM and delivered into buffer using acoustic technology (Echo550; nanoliter range). A 3× solution of LOXL2 or LOXL3 in reaction buffer was prepared (“enzyme solution”) and 5 μL of enzyme solution was added into the reaction wells. Buffer only was added to column 1 for no protein control. Reactions were incubated for 30 minutes at 37° C. A 3×mixture of cadaverine, Amplex Red, and HRP (“Substrate/Detection Mix) was prepared and subsequently 5 μL of the mixture added to each reaction well. Progress of reactions was monitored for 60 minutes at 37° C. using Clariostar plate reader (ex 530-12, ems 600-40). For all activity assays, pan-LOX inhibitor CCT365623 (Tang et al, 2017) and LOXL2/LOXL3 inhibitor PAT-1251 (PharmaKea) were included as standards.
Data analysis: Slope of the linear portion of the progress curve was calculated using Clariostar software. Typical analysis interval was between 8-30 min, but varied between experiments. The background subtracted signals (No protein wells are considered as background) were converted to % activity relative to DMSO controls. Data was analyzed using GraphPad Prism 4 with “sigmoidal dose-response (variable slope)”; 4 parameters with Hill Slope. Constraints: Bottom=Constant equal to 0. Top=Must be less than 120.

[3] = Microsome stability study; assay type: in vitro ADME, mouse; details: for half-life at 2 μM / microsomal CLint at 2 μM / CLint scaled at 2 μM: CD-1, pH 7.4; for half-life at 2 μM / microsomal CLint at 2 μM: male mouse liver microsomes 0.5 mg/mL, NADPH; for CLint scaled at 2 μM: male, read-out: Scaled-up CLint; for CLint scaled at 2 μM / Predicted hepatic CL: mouse liver microsomes
Description: Pooled CD-1 mouse liver microsomes at 0.5 mg/mL were pre-incubated in phosphate buffer (100 mM, pH 7.4) containing 1 mM NADPH and 3 mM MgCl2 in a 96-well plate for 5 minutes at 37° C. Ultra-pure water was added instead of NADPH in the negative control group to exclude the misleading factor that resulted from instability of chemical itself. The reaction was initiated by adding test compound at the final concentration of 2 μM and incubated at 37° C. Aliquots were taken from the incubation at 0, 15, 30, 45 and 60 minutes followed by the addition of 4 volume of cold acetonitrile containing internal standards. Samples were centrifuged and supernatant was used for LC-MS/MS analysis.

Row | IC50 [1] [µM] | IC50 [2] [µM] | half-life at 2 μM [3] [min] | microsomal CLint at 2 μM [3] [µL/min/mg] | CLint scaled at 2 μM [3] [L/h/kg] | Predicted hepatic CL [3] [L/h/kg] | Structure (SMILES)
1 | ≤ 0.5 | 1 to 30 |  |  |  |  | CN(C)C(=O)[C@H]1C[C@@H](C2CCCCC2)CN(S(=O)(=O)c2cccc(CN)c2)C1 (relative stereo) [Example 138, cis-1-((3-(Aminomethyl)phenyl)sulfonyl)-5-cyclohexyl-N,N-dimethylpiperidine-3-carboxamide 2,2,2-trifluoroacetate]
2 | ≤ 0.5 |  | 79.7 | 17.4 | 4.57 | 2.474 | NCc1ccc(S(=O)(=O)N2C[C@H](C(=O)N3CCOCC3)C[C@H](c3ccccc3)C2)s1 [Example 13B, ((3R,5R)-1-((5-(aminomethyl)thiophen-2-yl)sulfonyl)-5-phenylpiperidin-3-yl)(morpholino)methanone]
3 | 0.5 to 1 | 1 to 30 |  |  |  |  | NCc1cccc(S(=O)(=O)N2C[C@@H](C(=O)N3CCS(=O)(=O)CC3)C[C@@H](C3CCCCC3)C2)c1 (racemic) [Example 140, cis-(1-((3-(Aminomethyl)phenyl)sulfonyl)-5-cyclohexylpiperidin-3-yl)(1,1-dioxidothiomorpholino)methanone]
4 | ≤ 0.5 | 0.5 to 1 |  |  |  |  | NCc1ccnc(S(=O)(=O)N2C[C@@H](C(=O)N3CCOCC3)C[C@@H](c3ccccc3)C2)c1 [Example 133A, ((3S,5S)-1-((4-(aminomethyl)pyridin-2-yl)sulfonyl)-5-phenylpiperidin-3-yl)(morpholino)methanone 2,2,2-trifluoroacetate]
5 | 0.5 to 1 | 1 to 30 |  |  |  |  | NCc1cccc(S(=O)(=O)N2C[C@@H](C(=O)N3CCOCC3)C[C@@H](C3CCCCC3)C2)c1 (racemic) [Example 139, cis-(1-((3-(Aminomethyl)phenyl)sulfonyl)-5-cyclohexylpiperidin-3-yl)(morpholino)methanone]
6 | ≤ 0.5 |  | 24.5 | 56.5 | 14.8 | 3.959 | CS(=O)(=O)N1CCN(C(=O)[C@H]2C[C@@H](c3ccccc3F)CN(S(=O)(=O)c3ccc(CN)s3)C2)CC1.O=C(O)C(F)(F)F (racemic) [Example 91, cis-(1-((5-(Aminomethyl)thiophen-2-yl)sulfonyl)-5-(2-fluorophenyl)piperidin-3-yl)(4-(methylsulfonyl)piperazin-1-yl)methanone 2,2,2-trifluoroacetate]
7 | ≤ 0.5 | ≤ 0.5 |  |  |  |  | NCc1ccnc(S(=O)(=O)N2C[C@@H](C(=O)N3CCOCC3)C[C@@H](c3ccccc3)C2)c1 (relative stereo) [Example 133, cis-(1-((4-(Aminomethyl)pyridin-2-yl)sulfonyl)-5-phenylpiperidin-3-yl)(morpholino)methanone 2,2,2-trifluoroacetate]
8 | 1 to 30 | > 30 |  |  |  |  | NCc1cccc(S(=O)(=O)N2C[C@H](C(=O)N3CCS(=O)(=O)CC3)C[C@@H](c3ccccc3)C2)n1 (racemic) [Example 115T, trans-(1-((6-(Aminomethyl)pyridin-2-yl)sulfonyl)-5-phenylpiperidin-3-yl)(1,1-dioxidothiomorpholino)methanone 2,2,2-trifluoroacetate]
9 | ≤ 0.5 | 1 to 30 |  |  |  |  | CS(=O)(=O)[C@H]1C[C@@H](S(=O)(=O)c2cccc(CN)c2)CN(c2ccccc2F)C1 (racemic) [Example 92, cis-(3-((-1-(2-Fluorophenyl)-5-(methylsulfonyl)piperidin-3-yl)sulfonyl)phenyl)methanamine 2,2,2-trifluoroacetate]
10 | ≤ 0.5 | 1 to 30 |  |  |  |  | CS(=O)(=O)[C@@H]1C[C@@H](S(=O)(=O)c2cccc(CN)c2)CN(c2ccccc2)C1 (racemic) [Example 79, trans-(3-((-5-(Methylsulfonyl)-1-phenylpiperidin-3-yl)sulfonyl)phenyl)methanamine]
11 | ≤ 0.5 |  | 37 | 37.4 | 9.82 | 3.484 | NCc1ccc(S(=O)(=O)N2C[C@@H](C(=O)N3CCOCC3)C[C@@H](C3CCCCC3)C2)s1.O=C(O)C(F)(F)F (racemic) [Example 120, cis-(1-((5-(Aminomethyl)thiophen-2-yl)sulfonyl)-5-cyclohexylpiperidin-3-yl)(morpholino)methanone 2,2,2-trifluoroacetate]
12 | ≤ 0.5 | 1 to 30 |  |  |  |  | NCc1cccc(S(=O)(=O)N2C[C@H](C(=O)N3CCS(=O)(=O)CC3)C[C@@H](c3ccccc3)C2)c1 (racemic) [Example 85, trans-(1-((3-(Aminomethyl)phenyl)sulfonyl)-5-phenylpiperidin-3-yl)(1,1-dioxidothiomorpholino)methanone 2,2,2-trifluoroacetate]
13 | ≤ 0.5 |  | 37.1 | 37.3 | 9.8 | 3.481 | NCc1ccc(S(=O)(=O)N2C[C@H](C(=O)N3CCS(=O)(=O)CC3)C[C@@H](c3ccccc3)C2)s1.O=C(O)C(F)(F)F (racemic) [Example 75B, trans-(1-((5-(Aminomethyl)thiophen-2-yl)sulfonyl)-5-phenylpiperidin-3-yl)(1,1-dioxidothiomorpholino)methanone 2,2,2-trifluoroacetate]
